Data as given in ChEMBL document CHEMBL1132912, “Cytotoxic alpha-bromoacrylic derivatives of distamycin analogues modified at the amidino moiety” (Bioorg Med Chem Lett, 2000).

Columns and labels:
Assay type in all cases: functional
Mus musculus [1] = assay: In vivo antileukemic activity was determined in mice infected with L1210 leukemia cell after intravenous of treated versus untreated mice 10)
Mus musculus [2] = assay: In vivo antileukemic activity was determined on L1210 leukemia cell in mice (O.D.=optimal (non-toxic) dose <LD10)
Mus musculus [3] = assay: In vivo antileukemic activity was determined in mice infected with L1210 leukemia cell after intravenous administration (T/C=median survival time of treated versus untreated mice 10)

SMILES	T/C (Mus musculus [1]) [%]	OD (Mus musculus [2]) [mg/kg]	T/C (Mus musculus [3]) [%]
C=C(Br)C(=O)Nc1cc(C(=O)Nc2cc(C(=O)Nc3cc(C(=O)Nc4cc(C(=O)NCCN=C(N)N)n(C)c4)n(C)c3)n(C)c2)n(C)c1.Cl	196	1.56	–
C=C(Br)C(=O)Nc1cc(C(=O)Nc2cc(C(=O)Nc3cc(C(=O)Nc4cc(C(=O)NCCC(=N)NC#N)n(C)c4)n(C)c3)n(C)c2)n(C)c1.Cl	157	3.13	–
C=C(Br)C(=O)Nc1cc(C(=O)Nc2cc(C(=O)Nc3cc(C(=O)Nc4cc(C(=O)NCCC#N)n(C)c4)n(C)c3)n(C)c2)n(C)c1.Cl	–	12.5	157
C=C(Br)C(=O)Nc1cc(C(=O)Nc2cc(C(=O)Nc3cc(C(=O)Nc4cc(C(=O)NCC/C(=N/C)NC)n(C)c4)n(C)c3)n(C)c2)n(C)c1.Cl	258	1.56	–
C=C(Br)C(=O)Nc1cc(C(=O)Nc2cc(C(=O)Nc3cc(C(=O)Nc4cc(C(=O)NCCC(=N)NC)n(C)c4)n(C)c3)n(C)c2)n(C)c1.Cl	150	3.13	–
C=C(Br)C(=O)Nc1cc(C(=O)Nc2cc(C(=O)Nc3cc(C(=O)Nc4cc(C(=O)NCCC(=N)NO)n(C)c4)n(C)c3)n(C)c2)n(C)c1.Cl	186	6.25	–
C=C(Br)C(=O)Nc1cc(C(=O)Nc2cc(C(=O)Nc3cc(C(=O)Nc4cc(C(=O)NCCC(N)=O)n(C)c4)n(C)c3)n(C)c2)n(C)c1.Cl	169	6.25	–
